US8461305B2, “L-fucose α1→6 specific lectin” (J-Oil Mills, Inc., priority 2008, dated 2013)

Assay: frontal affinity chromatography (FAC), association constant to PA sugar chains without L-fucose
Type: binding
Conditions: for association constant Ka: 25 degrees C.
Description: The following section will describe a method of calculating an association constant by frontal affinity chromatography (FAC). This method is based on the following principle. […] Then, the elution front end (front) is observed immediately. When there is an affinity with lectin, the elution of the sugar chain is delayed.
The preparation of a lectin column used in the apparatus is performed in the method as described below. 1. Purified lectin is dissolved in 0.1 to 0.2M of NaHCO3 buffer solution (pH 8.3 to 8.5). 2. The lectin is immobilized, via a lectin primary amino group, a carrier such as NHS activated sepharose. 3. Then, the lectin is blocked by Tris buffer solution including primary amine or ethanolamine for example. 4. Lectin-sepharose is suspended in 10 mM Tris buffer, including 0.8% of NaCl (pH 7.4, TBS). Then, lectin immobilized resin is filled in a miniature column (φ2 mm×10 mm, 31.4 μl). 5. The miniature column in which the lectin immobilized resin is filled is protected by a holder and the lectin column is connected to an FAC automatic analysis apparatus (FAC-1, SHIMADZU CORPORATION).
Then, the elution of the PA sugar chain from the column is detected by a fluorescence detector (excitation wavelength/fluorescence wavelength: 310 nm/380 nm).
Based on the detection data, by using the elution front end (Vo) of the sugar chain (PA rhamnose) not interacting with lectin as a reference, the delay (V−Vo) of the elution front end (V) of a sugar chain interacting with lectin is calculated as an interaction strength. Then, based on the following FAC criteria expressions, the association constant (Ka) between the sugar chain and lectin is calculated based on V−Vo and Bt. If the interaction strength (V−Vo value) and the association constant are higher, a higher affinity is caused between lectin and an L-fucose α1→6 sugar chain.
[In the formula, A means substance used for the elution, Ao means the initial concentration of the substance A, B means a immobilized ligand, V means the elution volume, Vo means the elution front end volume of the substance not interacting with the immobilized ligand B at all, Bt means an effective ligand amount, Kd means a dissociation constant (an inverse of the association constant)].
Pyridylaminated (PA) sugar chains shown in FIG. 1 and FIG. 2 were used to frontal affinity chromatography (FAC) analysis. PA sugars were purchased from TAKARA BIO INC., SEIKAGAKU BIOBUSINESS CORPORATION, and Masuda Chemical Industries co., LTD. PA sugar were also obtained by pyridylaminating, by GlycoTAG®(TAKARA BIO INC.), an unlabeled sugar chain or a sugar chain obtained by subjecting a sugar chain to enzyme digestion for example.
Lectin was dissolved in 0.2 M NaHCO3 buffer solution (pH 8.3) including 0.5 M NaCl and coupled to the NHS-activated sepharose (GE Healthcare Bioscience) by following the manufacturer's instructions. Then, lectin immobilized sepharose was suspended in 10 mM Tris buffer (pH 7.4, TBS) including […] and the resultant matter was filled in a miniature column (φ2 mm×10 mm, 31.4 μl).
Frontal affinity chromatography was performed using FAC automatic analysis apparatus (FAC-1, SHIMADZU CORPORATION). In particular, the above-prepared lectin column was inserted to a stainless steel holder and the holder was connected to FAC-1 apparatus. The flow rate and the column temperature were maintained at 0.125 ml/min and 25 degrees C., respectively. After the miniature column was equilibrated by the TBS, an excessive volume (0.5 ml to 4 ml) of a PA sugar chain (3.75 nM or 7.5 nM) was continuously inputted to the column using an automatic sampling apparatus.
The fluorescent strength of the eluate of the PA sugar (excitation wavelength of 310 nm and fluorescence wavelength of 380 nm) was monitored to measure the interaction strength [a difference of the front end eluate to the standard oligosaccharide (PA rhamnose): V−V0]. […]

For “Stropharia rugosoannulata lectin [SRL, novel L-fucose α1→6 specific lectin purified from the mushroom Stropharia rugosoannulata]”, the “binding to sugar chain not having L-fucose” value (FAC) was “not bound”, the “association constant Ka” value (Sugar chain No. 001) was under 1000 M⁻¹ and the “association constant Ka” value (Sugar chain No. 002) was under 1000 M⁻¹. The “association constant Ka” value (Sugar chain No. 003) was under 1000 M⁻¹, the “association constant Ka” value (Sugar chain No. 004) was under 1000 M⁻¹ and the “association constant Ka” value (Sugar chain No. 005) was under 1000 M⁻¹. For the same substance, the “association constant Ka” value (Sugar chain No. 006) was under 1000 M⁻¹, the “association constant Ka” value (Sugar chain No. 007) was under 1000 M⁻¹ and the “association constant Ka” value (Sugar chain No. 008) was under 1000 M⁻¹. The “association constant Ka” value (Sugar chain No. 009) was under 1000 M⁻¹, the “association constant Ka” value (Sugar chain No. 010) was under 1000 M⁻¹ and the “association constant Ka” value (Sugar chain No. 011) was under 1000 M⁻¹. The “association constant Ka” value (Sugar chain No. 012) was under 1000 M⁻¹, the “association constant Ka” value (Sugar chain No. 013) was under 1000 M⁻¹ and the “association constant Ka” value (Sugar chain No. 014) was under 1000 M⁻¹. The “association constant Ka” value (Sugar chain No. 101) was under 1000 M⁻¹, the “association constant Ka” value (Sugar chain No. 103) was under 1000 M⁻¹ and the “association constant Ka” value (Sugar chain No. 104) was under 1000 M⁻¹. The “association constant Ka” value (Sugar chain No. 105) was under 1000 M⁻¹, the “association constant Ka” value (Sugar chain No. 107) was under 1000 M⁻¹ and the “association constant Ka” value (Sugar chain No. 108) was under 1000 M⁻¹. The “association constant Ka” value (Sugar chain No. 301) was under 1000 M⁻¹, the “association constant Ka” value (Sugar chain No. 304) was under 1000 M⁻¹ and the “association constant Ka” value (Sugar chain No. 305) was under 1000 M⁻¹. The “association constant Ka” value (Sugar chain No. 307) was under 1000 M⁻¹, the “association constant Ka” value (Sugar chain No. 308) was under 1000 M⁻¹ and the “association constant Ka” value (Sugar chain No. 313) was under 1000 M⁻¹. The “association constant Ka” value (Sugar chain No. 314) was under 1000 M⁻¹, the “association constant Ka” value (Sugar chain No. 323) was under 1000 M⁻¹ and the “association constant Ka” value (Sugar chain No. 501) was under 1000 M⁻¹. For the same substance, the “association constant Ka” value (Sugar chain No. 502) was under 1000 M⁻¹, the “association constant Ka” value (Sugar chain No. 503) was under 1000 M⁻¹ and the “association constant Ka” value (Sugar chain No. 504) was under 1000 M⁻¹. For the same substance, the “association constant Ka” value (Sugar chain No. 701) was under 1000 M⁻¹, the “association constant Ka” value (Sugar chain No. 702) was under 1000 M⁻¹ and the “association constant Ka” value (Sugar chain No. 703) was under 1000 M⁻¹. The “association constant Ka” value (Sugar chain No. 704) was under 1000 M⁻¹, the “association constant Ka” value (Sugar chain No. 705) was under 1000 M⁻¹ and the “association constant Ka” value (Sugar chain No. 706) was under 1000 M⁻¹. The “association constant Ka” value (Sugar chain No. 707) was under 1000 M⁻¹, the “association constant Ka” value (Sugar chain No. 708) was under 1000 M⁻¹ and the “association constant Ka” value (Sugar chain No. 709) was under 1000 M⁻¹. The “association constant Ka” value (Sugar chain No. 710) was under 1000 M⁻¹, the “association constant Ka” value (Sugar chain No. 711) was under 1000 M⁻¹ and the “association constant Ka” value (Sugar chain No. 712) was under 1000 M⁻¹. The “association constant Ka” value (Sugar chain No. 713) was under 1000 M⁻¹, the “association constant Ka” value (Sugar chain No. 715) was under 1000 M⁻¹ and the “association constant Ka” value (Sugar chain No. 716) was under 1000 M⁻¹. For the same substance, the “association constant Ka” value (Sugar chain No. 717) was under 1000 M⁻¹, the “association constant Ka” value (Sugar chain No. 724) was under 1000 M⁻¹ and the “association constant Ka” value (Sugar chain No. 725) was under 1000 M⁻¹. For the same substance, the “association constant Ka” value (Sugar chain No. 728 (as listed in Table 7)) was under 1000 M⁻¹, the “association constant Ka” value (Sugar chain No. 732) was under 1000 M⁻¹ and the “association constant Ka” value (Sugar chain No. 733) was under 1000 M⁻¹. For the same substance, the “association constant Ka” value (Sugar chain No. 734) was under 1000 M⁻¹, the “association constant Ka” value (Sugar chain No. 735) was under 1000 M⁻¹ and the “association constant Ka” value (Sugar chain No. 736) was under 1000 M⁻¹. The “association constant Ka” value (Sugar chain No. 737) was under 1000 M⁻¹, the “association constant Ka” value (Sugar chain No. 738) was under 1000 M⁻¹ and the “association constant Ka” value (Sugar chain No. 901) was under 1000 M⁻¹. For the same substance, the “association constant Ka” value (Sugar chain No. 902) was under 1000 M⁻¹, the “association constant Ka” value (Sugar chain No. 903) was under 1000 M⁻¹ and the “association constant Ka” value (Sugar chain No. 905) was under 1000 M⁻¹. For the same substance, the “association constant Ka” value (Sugar chain No. 906) was under 1000 M⁻¹ and the “association constant Ka” value (Sugar chain No. 907) was under 1000 M⁻¹.
